Columns and labels:
human GLP-1R [1] = molecular target: T1, human GLP-1R (Homo sapiens, UniProt P43220); assay: cAMP generation by membranes from HEK-GLP-1R cells; assay type: biochemical; conditions: 5 min, 30°C, IBMX
T1 construct: expressed in transfected cells; vector pcDNA5/FRT
Description: (§1) The cAMP was extracted from either intact cell or membrane preparations using a method identical to that for extraction of Ins(1,4,5)P3 [22]. Levels of cAMP were then determined by a competitive radioreceptor assay using binding protein purified from bovine adrenal glands and related to cellular protein assessed by Bradford assay.
(§2) Concentration-response curves were fitted using GraphPad Prism (GraphPad Software Inc., CA) using a standard four parameter logistic equation. All data are representative of n≥3 or are presented as mean+/±s.e.m., where n = 3 unless otherwise stated. Statistical analysis was by oneway ANOVA and where P<0.05, followed by Bonferroni's or Dunnett's multiple range test as indicated. Alternatively analysis was performed by Student's t-test. Where potency estimates are given these are pEC50 values (−log10 of the molar concentration giving 50% of the maximal response).

[2] = molecular target: T2, GLP-1R (native, rat insulinoma cell line INS-1E) (Rattus norvegicus, UniProt P32301); assay: cAMP generation in INS-1E cells; assay type: cell-based
T2 construct: the rat insulinoma cell line, INS-1E, with native expression of the GLP-1R; endogenous in cells; host or cells: INS-1E rat insulinoma cells (gift of Prof. C.B. Wollheim)
T2 sequence (P32301 22-463): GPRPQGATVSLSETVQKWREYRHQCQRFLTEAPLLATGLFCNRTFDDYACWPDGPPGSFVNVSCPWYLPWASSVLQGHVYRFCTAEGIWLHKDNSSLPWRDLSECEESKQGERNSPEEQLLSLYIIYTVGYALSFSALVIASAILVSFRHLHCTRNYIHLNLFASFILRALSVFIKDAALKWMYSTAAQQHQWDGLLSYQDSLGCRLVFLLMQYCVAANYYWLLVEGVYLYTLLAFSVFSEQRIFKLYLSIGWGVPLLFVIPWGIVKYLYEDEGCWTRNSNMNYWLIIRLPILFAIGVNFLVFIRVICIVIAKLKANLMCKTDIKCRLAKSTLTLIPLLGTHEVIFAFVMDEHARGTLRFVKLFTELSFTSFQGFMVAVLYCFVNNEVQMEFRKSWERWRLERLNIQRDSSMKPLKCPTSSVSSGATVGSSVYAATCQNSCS
Description: (§3) HEK-Flp-In cells with stable recombinant expression of the human GLP-1R (HEK-GLP-1R) were cultured in DMEM with high glucose supplemented with 10% FBS, 100 µg/ml streptomycin and 100 units/ml penicillin sulphate. These cells were originally generated by transfection of HEK-Flp-In cells (Invitrogen: Paisley, U.K.) with pcDNA5/FRT containing the human GLP-1R. […] INS-1E cells were kindly provided by Prof. C.B. Wollheim of the University of Geneva, Switzerland [19]. These cells were used between passages 65–90 and cultured in RPMI media containing 11.1 mM glucose, 5% heat-inactivated FBS, 100 µg/ml streptomycin, 100 units/ml penicillin sulphate, 100 units/ml neomycin, 50 µM β-mercaptoethanol, 10 mM HEPES and 1 mM sodium pyruvate. All cells were cultured at 37°C in a 5% CO2 humidified atmosphere and passaged at confluence.
Confluent monolayers of HEK-GLP-1R cells cultured in 24-well plates pre-coated with poly-D-lysine (0.1% w/v) where washed twice with 0.5 ml Krebs-HEPES buffer (KHB, composition: 10 mM HEPES; 4.2 mM NaHCO3; 11.7 mM D-glucose; 1.18 mM MgSO4·7H2O; 1.18 mM KH2PO4; 4.69 mM KCl; 118 mM NaCl; 1.3 mM CaCl2·2H2O; pH 7.4) containing 0.1% (w/v) BSA (KHB-BSA) before incubation (10 min, 37°C) in 360 µl KHB-BSA containing 500 µM isobutylmethylxanthine (IBMX). Ligands or vehicle control (40 µl) were added and reactions terminated after the appropriate times by replacement of the aqueous phase with ice-cold 0.5 M trichloroacetic acid. INS-1E cells grown to confluence in 24-well plates were treated similarly with the exception that after washing in KHB, cells were incubated in 200 µl KHB-BSA containing 1.4 mM glucose without IBMX for 2 h followed by challenge with ligands (or vehicle) for 15 min at 37°C in 400 µl KHB-BSA, in the presence of 10 mM glucose and 500 µM IBMX. Reactions were terminated as above.
as §1, §2

human GLP-1R [3] = molecular target: T1, human GLP-1R; assay: Intracellular Ca2+ signaling in fluo-4-loaded HEK-GLP-1R cells; assay type: cell-based
Description: as §2

human GLP-1R [4] = molecular target: T1, human GLP-1R; assay: ERK activation (phospho-ERK Western blot) in HEK-GLP-1R cells; assay type: cell-based; conditions: compound 2 10 µM, 5 min
Description: as §2

[5] = molecular target: T2, GLP-1R (native, rat insulinoma cell line INS-1E); assay: ERK activation (phospho-ERK Western blot) in INS-1E cells; assay type: cell-based; conditions: single ligands, 5 min; much lower concentrations of GLP-1 7–36 amide required
Description: as §3, §2

β2-adrenoceptors = assay: cAMP accumulation via β2-adrenoceptors in HEK-GLP-1R cells; assay type: cell-based
Description: Ligands or vehicle control (40 µl) were added and reactions terminated after the appropriate times by replacement of the aqueous phase with ice-cold 0.5 M trichloroacetic acid. […] Reactions were terminated as above.
as §1
All data are mean±/+s.e.m., n = 3–4, *** P<0.001 and ** P<0.01 by Bonferroni's multiple range test. For clarity only differences between ‘numerical’ and ‘co-addition’ conditions are shown.

GLP-1R [6] = conditions: ref [7]; cited from earlier work
GLP-1R [7] = conditions: unclear whether additivity or true potentiation; ref [33]; cited from earlier work

T1 sequence (P43220 24-463): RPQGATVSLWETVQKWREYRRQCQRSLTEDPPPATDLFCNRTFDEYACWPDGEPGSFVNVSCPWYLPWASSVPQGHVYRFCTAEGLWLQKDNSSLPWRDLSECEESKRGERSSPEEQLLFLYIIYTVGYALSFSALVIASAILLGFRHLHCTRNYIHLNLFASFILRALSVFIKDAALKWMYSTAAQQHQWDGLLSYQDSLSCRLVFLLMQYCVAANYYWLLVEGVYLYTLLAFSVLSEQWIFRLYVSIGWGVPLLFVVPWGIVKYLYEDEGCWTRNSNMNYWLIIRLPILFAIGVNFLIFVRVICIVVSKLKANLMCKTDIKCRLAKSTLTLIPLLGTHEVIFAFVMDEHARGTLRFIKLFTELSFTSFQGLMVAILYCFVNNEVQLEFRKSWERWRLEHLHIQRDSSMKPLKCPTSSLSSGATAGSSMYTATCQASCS

## CC(C)(C)Nc1nc2cc(Cl)c(Cl)cc2nc1S(C)(=O)=O [compound 2, 6,7-dichloro-2-methylsulfonyl-3-N-tert-butylaminoquinoxaline]
Human GLP-1R [1]
  cAMP response in membranes (in words): enhanced the ability of GLP-1 9–36 amide to increase cAMP
Human GLP-1R [1]; compound 2 alone, 3 µM, mean±s.e.m., n = 3
  cAMP level (membranes): 2623±269 pmol/mg protein
[2]; 3 µM compound 2 alone, 15 min
  cAMP elevation (INS-1E): 40±8 pmol/mg protein
[2]; 15 min, 10 mM glucose, IBMX
  cAMP response in INS-1E (in words): elevated cAMP with low-potency
[2]; compound 2 alone, concentrations greater than 10 µM not tested
  Emax as % of that evoked by GLP-1 7–36 amide, cAMP (INS-1E): 34%
Human GLP-1R [3]; compound 2, 10 µM
  fluorescence change sensitive to thapsigargin: did not cause an appreciable, thapsigargin-sensitive increase in fluorescence
Human GLP-1R [3]; compound 2, 100 µM, with/without thapsigargin (2 µM, 5 min)
  fluorescence change sensitive to thapsigargin: a proportion of the change in fluorescence in response to compound 2 was blocked by thapsigargin
Human GLP-1R [4]
  ERK activation: response equivalent to the maximally effective concentration of GLP-1 7–36 amide (10 nM)
[5]
  ERK activation (INS-1E): robust and approximately equivalent activation of ERK
β2-adrenoceptors; Figure 3D
  effect on cAMP generation by the β-adrenoceptor: inability of compound 2 to influence cAMP generation
β2-adrenoceptors; isoproterenol (100 µM) + compound 2 (1 µM), IBMX, 5% DMSO
  cAMP accumulation on co-stimulation with isoproterenol and compound 2 versus numerical sum: only equivalent to the numerical addition of responses to the two ligands when used alone
GLP-1R [6]
  effect on GLP-1 7–36 amide-mediated internalization of the GLP-1R: can inhibit GLP-1 7–36 amide-mediated internalization of the GLP-1R
GLP-1R [7]
  effect on activity of GLP-1 9–36 amide: may increase the activity of GLP-1 9–36 amide
